Laboratory results as given in ChEMBL document CHEMBL1158639, “Synthesis and in vivo evaluation of [11C]MPTQ: a potential PET tracer for alpha2A-adrenergic receptors” (Bioorg Med Chem Lett, 2010).

Key:
[1] = biological target: T1, Alpha-2C adrenergic receptor (Homo sapiens, UniProt P18825); test: Displacement of [3H]rauwolscine from adrenergic Alpha-2C receptor
T1 sequence (P18825 whole entry): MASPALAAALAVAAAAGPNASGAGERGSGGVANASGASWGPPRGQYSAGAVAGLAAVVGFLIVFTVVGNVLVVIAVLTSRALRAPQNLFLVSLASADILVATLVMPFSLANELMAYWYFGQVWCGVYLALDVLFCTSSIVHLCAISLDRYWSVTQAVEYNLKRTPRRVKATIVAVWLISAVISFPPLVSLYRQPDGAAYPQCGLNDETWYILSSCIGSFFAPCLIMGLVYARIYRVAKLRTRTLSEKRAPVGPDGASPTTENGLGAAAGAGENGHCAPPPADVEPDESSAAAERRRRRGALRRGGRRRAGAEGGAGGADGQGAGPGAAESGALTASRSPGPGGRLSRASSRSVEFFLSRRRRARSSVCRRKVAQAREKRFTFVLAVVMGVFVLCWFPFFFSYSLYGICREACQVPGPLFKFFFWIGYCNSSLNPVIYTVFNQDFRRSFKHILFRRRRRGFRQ

[2] = biological target: Sodium-dependent serotonin transporter (Homo sapiens, UniProt P31645); test: Displacement of [3H]paroxetine from 5HTT receptor
Sodium-dependent serotonin transporter, sequence (P31645 whole entry): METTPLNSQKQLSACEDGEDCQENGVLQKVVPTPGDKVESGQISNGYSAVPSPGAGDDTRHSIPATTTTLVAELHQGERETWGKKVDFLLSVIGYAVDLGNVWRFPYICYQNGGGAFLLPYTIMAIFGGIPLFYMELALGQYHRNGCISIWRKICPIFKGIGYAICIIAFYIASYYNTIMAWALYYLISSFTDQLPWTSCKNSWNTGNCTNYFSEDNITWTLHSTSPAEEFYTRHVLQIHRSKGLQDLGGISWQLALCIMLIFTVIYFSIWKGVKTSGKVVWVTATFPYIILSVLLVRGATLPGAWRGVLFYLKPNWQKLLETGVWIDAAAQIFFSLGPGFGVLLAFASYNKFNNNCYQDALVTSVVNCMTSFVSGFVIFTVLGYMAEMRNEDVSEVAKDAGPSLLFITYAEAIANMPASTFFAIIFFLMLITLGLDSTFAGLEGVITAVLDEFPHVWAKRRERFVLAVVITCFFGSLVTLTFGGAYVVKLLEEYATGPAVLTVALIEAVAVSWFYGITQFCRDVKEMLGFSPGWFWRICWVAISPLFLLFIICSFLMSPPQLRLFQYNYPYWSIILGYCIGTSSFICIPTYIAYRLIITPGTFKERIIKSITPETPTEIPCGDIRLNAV

[3] = Metabolic stability in baboon brain assessed as compound remaining at 4.43 mCi after 30 mins; assay type: ADME, tissue-based; details: papio anubis, read-out: Stability
[4] = Metabolic stability in baboon brain assessed as compound remaining at 4.43 mCi after 90 mins; assay type: ADME, tissue-based; details: papio anubis, read-out: Stability

SMILES	Ki [1]	Ki [2]	remaining at 0.5 h [3]	remaining at 1.5 h [4]
CN1CC2C(=NO[C@H]2CN2CCN(C/C=C/c3ccccc3)CC2)c2ccccc21 (some centres undefined)	4.5 nM	16 nM	–	–
[11CH3]N1CC2C(=NO[C@H]2CN2CCN(C/C=C/c3ccccc3)CC2)c2ccccc21 (some centres undefined)	–	–	35%	21%
